This is an account of results in paper PMC7997578, “Design, Synthesis, Dynamic Docking, Biochemical Characterization, and in Vivo Pharmacokinetics Studies of Novel Topoisomerase II Poisons with Promising Antiproliferative Activity” (Journal of Medicinal Chemistry, 2020).

A short description of series [1]: in vivo pharmacokinetics in mice. The conditions noted are these: mouse. How it is done:
Finally, on the basis of the overall results and drug-like profile, 3f was selected as our lead for in vivo pharmacokinetics studies, as a preparatory characterization for future analyses of in vivo drug efficacy in animal models of cancer. We tested two different routes of administration: (i) intravenous (iv) injection at a concentration of 3 mg/kg (n = 3 for each time point) and oral (po) treatment at a dose of 10 mg/kg (n = 3 for each time point). Despite the relatively low thermodynamic solubility of 3f (30 μM in PBS), the compound reached the target concentration in the formulation used for the in vivo experiments. The mean plasma concentration versus time profile of 3f is shown in Figure 5, and the corresponding pharmacokinetic parameters are summarized in the inserted table.
Male C57B6/J male mice, 8 weeks old, 25-30 g were used (Charles River). All procedures were performed in accordance with the Ethical Guidelines of European Communities Council (Directive 2010/63/EU of 22 September 2010) and accepted by the Italian Ministry of Health. All efforts were made to minimize animal suffering and to use the minimal number of animals required to produce reliable results, according to the “3Rs concept”. Animals were group-housed in ventilated cages (n=5 mice per cage) and had free access to food and water. They were maintained under a 12-hour light/dark cycle (lights on at 8:00 am) at controlled temperature (21°C ± 1°C) and relative humi dity […]
4. Pharm acok inet ic studies
Compound 3f was administered orally (P.O.) and intravenously (I.V.) to C57B6/J male mice at 10 and 3 mg/Kg dose. Vehicle was: PEG400/Tween 80/Saline solution at 10/10/80 % in volume respectively. 3f was first dissolved in 100% PEG, then diluted to the final target concentration in this vehicle. The target concentration of 3f in the dosing solution was checked and confirmed by LC-MS .
The dosing solutions were diluted differently in the vehicle. The different dilutions were further diluted 4-fold with CH3CN prior to analysis. A reference standard was spiked in the vehicle to prepare a calibration curve over a 0.1 -10µM range. The ca librators were also diluted 4 -fold with CH3CN as for the dosing solution dilutions. The dosing solutions and calibrators were analys ed under the sam e conditions as for the plasma samples described below.
Three animals per dose were treated. Blood samples at 0, 15, 30, 60, 120, 240, and 480 minutes after administration were collected for PO arm. Blood samples at 0, 5, 15, 30, 60, 120 and 240 minutes after administration were collected for IV arm. Plasma was separated from blood by centrifugation for 15 minutes at 3500 rpm a 4°C, collected in a eppendorf tube and frozen ( -80°C). Brain samples were homogenized in Phosphate buffered saline a nd were then split in two aliquots kept at -80 °C until analysis. An aliquot was used for compound brain level evaluations, following the same procedure described below for plasma samples. The second aliquot was kept for protein content evaluation by bicinchoninic acid assay (BC A). Control animals treated with vehicle only w ere also included in the experimental protocol.
Plasma samples were centrifuged at 21.100g for 15min. at 4°C. A 50µl aliquot was transferred into a 96-Deep Well plate and 150µl of extraction so lution was added. The extraction solution was consisting of cold CH3CN spiked with 200n M of internal standard. The plate was centrifuged at 3270g for 15min. at 4°C. 80µl of supernatant was then transferred into a 96 -Deep Well plate and 80µl of H2O was added. A reference standard of the compound was spiked in naïve mouse plasma to prepare a calibration curve over a 1nM – 10µM range. Three quality control samples were prepared by spiking the compound in blank mouse plasma to the final concentrations of 20, 200 and 2000nM.
Calibrators and quality controls were extracted wit h the same e xtraction solution used for the plasma samples. The samples w ere analysed on a W aters ACQUITY UPLC/MS TQD system (Water s Inc. […]

The target of series [2] is T1, topoII/DNA cleavage complex (Homo sapiens, UniProt P11388).
T1 construct: purchased Inspiralis
T1 sequence (P11388 whole entry, one chain of several): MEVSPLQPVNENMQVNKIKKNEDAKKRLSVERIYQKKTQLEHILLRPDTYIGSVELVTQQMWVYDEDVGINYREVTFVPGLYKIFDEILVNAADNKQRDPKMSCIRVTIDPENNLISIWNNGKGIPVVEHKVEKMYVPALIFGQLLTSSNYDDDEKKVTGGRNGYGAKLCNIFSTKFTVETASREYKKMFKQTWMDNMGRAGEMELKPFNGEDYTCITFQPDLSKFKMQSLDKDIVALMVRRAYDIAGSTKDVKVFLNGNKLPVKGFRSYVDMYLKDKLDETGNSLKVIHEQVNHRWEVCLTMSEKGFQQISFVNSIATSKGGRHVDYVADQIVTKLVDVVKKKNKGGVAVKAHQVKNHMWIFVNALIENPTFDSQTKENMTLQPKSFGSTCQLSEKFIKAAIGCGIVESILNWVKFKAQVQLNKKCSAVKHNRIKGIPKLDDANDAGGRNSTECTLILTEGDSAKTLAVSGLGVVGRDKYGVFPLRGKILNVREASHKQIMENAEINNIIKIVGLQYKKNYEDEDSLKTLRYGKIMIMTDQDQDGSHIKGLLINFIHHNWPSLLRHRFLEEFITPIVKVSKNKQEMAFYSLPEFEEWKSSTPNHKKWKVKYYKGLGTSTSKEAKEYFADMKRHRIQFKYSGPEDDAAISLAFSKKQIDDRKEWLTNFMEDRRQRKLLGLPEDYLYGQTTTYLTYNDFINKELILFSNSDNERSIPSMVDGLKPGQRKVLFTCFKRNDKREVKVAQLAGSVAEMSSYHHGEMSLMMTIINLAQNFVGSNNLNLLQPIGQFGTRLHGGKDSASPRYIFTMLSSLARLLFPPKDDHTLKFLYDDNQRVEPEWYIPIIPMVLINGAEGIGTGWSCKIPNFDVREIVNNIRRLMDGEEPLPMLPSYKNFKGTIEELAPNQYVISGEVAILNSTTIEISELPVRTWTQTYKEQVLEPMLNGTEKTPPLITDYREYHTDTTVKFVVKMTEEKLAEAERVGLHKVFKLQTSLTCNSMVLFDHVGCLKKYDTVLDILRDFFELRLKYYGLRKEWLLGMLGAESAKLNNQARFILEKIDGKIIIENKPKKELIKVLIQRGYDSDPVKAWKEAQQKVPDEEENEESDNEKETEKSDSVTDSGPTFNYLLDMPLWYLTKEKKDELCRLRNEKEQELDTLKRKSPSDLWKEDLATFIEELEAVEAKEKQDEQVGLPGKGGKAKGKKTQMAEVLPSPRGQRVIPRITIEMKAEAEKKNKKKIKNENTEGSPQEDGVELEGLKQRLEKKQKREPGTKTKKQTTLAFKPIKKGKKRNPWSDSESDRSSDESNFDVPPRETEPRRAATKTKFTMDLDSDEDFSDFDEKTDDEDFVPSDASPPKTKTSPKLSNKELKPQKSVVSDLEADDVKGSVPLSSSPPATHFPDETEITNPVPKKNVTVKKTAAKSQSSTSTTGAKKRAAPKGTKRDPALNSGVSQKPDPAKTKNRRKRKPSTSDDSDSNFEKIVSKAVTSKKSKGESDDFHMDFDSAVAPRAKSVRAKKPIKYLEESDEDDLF
As to the kind of experiment: topoisomerase II cleavage complex assay. It is filed as biochemical. How it is done: Figure 2 Poison activity of the hybrid compounds. Agarose gel electrophoresis of plasmid DNA incubated in the absence (no enzyme) or presence of 1 U of topoII containing either 1% DMSO as control vehicle (no enzyme and topoII lanes) or 200 μM compound. Labels are shown above each lane. Numbers at the bottom correspond to the normalized intensity of the linear form (FIII). Plasmid forms are indicated by the arrow-points on the right: supercoiled (FI), nicked (FII), and linear (FIII).
Poison activity of the compounds was evaluated using a cleavage complex assay (Inspiralis) as described previously.[60] Compounds were tested at a fixed concentration of 200 μM in the presence of 1 U of topoisomerase II and 500 ng of […] plasmid at 37 °C for 6 min. Final DMSO concentration in the assay was 1%. Reaction products were subjected to electrophoresis in a 1% agarose gel, stained with SYBR Safe DNA stain, and DNA bands were visualized and quantified as described above.

In series [3] the test system is A549 cells. Kind of series: cell viability MTT assay, A549. The format is cell-based, human. As to conditions: mean ± SD of two experiments, read-out: A549 antiproliferative activity IC50. Here is the method: The antiproliferative activity of all compounds was evaluated in (i) DU145, an androgen-independent prostate cancer cell line; (ii) HeLa, a cervical cancer cell line; and (iii) A549, a lung adenocarcinoma cell line (Table 1). […] Undoubtedly, this preliminary cytotoxicity data will need further characterization, also in relation to the in vitro activity of these compounds.
Human cancer cell lines A549 (lung adenocarcinoma, ATCC CCL-185), DU-145 (androgen-independent prostate cancer, ATCC HTB-81), and HeLa (cervical carcinoma, ATCC CCL-2) were obtained from ATCC. Cells were routinely grown in minimal essential medium containing Eagle’s salts and L-glutamine supplemented with 10% heat-inactivated FBS in a humidified atmosphere of 5% CO2 at 37 °C. To assess the antiproliferative activity of the compounds, cells were seeded at a density of 2500 cells/well (HeLa) or 5000 cells/well (A549, DU-145) in 96-well plates, and cell viability was measured using the MTT assay as described previously.[39] Values are reported as the mean ± SD of two independent experiments.

Like-named read-outs stand apart in the source and are kept apart here.

Usually bioavailability stands for dose-corrected exposure relative to a reference, in per cent. Usually Tmax stands for the time at which the peak concentration occurs. By Cmax is commonly meant the highest concentration seen after dosing. As usually defined, the IC50 is the midpoint of a concentration-inhibition curve. With `O=C(Nc1cccc(OC(F)(F)F)c1)c1c(O)n(-c2ccccc2)c(=S)n(-c2ccccc2)c1=O` [3f, 6-Hydroxy-4-oxo-1,3-diphenyl-2-thioxo-N-(3-(trifluoromethoxy)phenyl)-1,2,3,4-tetrahydropyrimidine-5-carboxamide], the concentration at 2 h in series [1] (male, C57B6/J, plasma, iv 3 mg/kg, 2 h, read-out: plasma concentration after 2 h) was determined as 551 ng/mL. In addition, the bioavailability in series [1] (male, C57B6/J, plasma, po 10 mg/kg vs iv 3 mg/kg, based on AUC from t = 0 to 240 min, read-out: bioavailability F) is 8%. Moreover, in series [1] (iv 3 mg/kg), the AUCplasma is 295528 ng·min/mL, the CL worked out at 4 mL/min/kg, the Clp was found to be 0.004 L min^–1 kg^–1 and the Tmax amounted to 0.083 h. Besides, in series [1] (iv 3 mg/kg), the Vd is given as 3 L/kg and the “t½ (elimination phase)” value is 0.5 h. In addition, in series [1] (iv 3 mg/kg or po 10 mg/kg), the “tolerability during PK studies” value is reported as “well tolerated” and the treatment-related clinical signs result was “no treatment-related clinical signs were observed”. This molecule registered a peak concentration (Cmax) in series [1] (iv 3 mg/kg, plasma) of 7366 ng/mL. Moreover, in series [1] (po 10 mg/kg), the AUCplasma came to 77385 ng·min/mL; the Tmax is 2 h; the Vd is reported as 18 L/kg; the “plasma concentration reached at 1 h and stably maintained for at least 6 h” value is listed as “about 400 ng/mL”. In series [1] (po 10 mg/kg), the “time of maximum concentration” value is given as “approximately 2 h” and the “t½ (elimination phase)” value was 3.17 h. For the same molecule, the Cmax in series [1] (po 10 mg/kg, plasma) was determined as 428 ng/mL. The “mode of action in cleavage complex formation assay” value in series [2] (200 μM compound, 1 U topoII, plasmid DNA) is listed as “confirmed to be poisons”. Also, the “poison efficacy, fold better than ARN16267” value in series [2] (200 μM concentration, linear form (FIII) intensity) is “about 1.5 fold”. In addition, the IC50 in series [3] (A549 lung adenocarcinoma cells) stood at 3.1 ± 0.1 µM. The IC50 in series [3] (Homo sapiens, A549, A549 lung adenocarcinoma cells) is under 5 µM.
